Data published in patent US10450327B2, “Epidithiodioxopiperazine compound or its derivatives, and the use thereof” (priority 2011, dated 2019).

Tests used:
PrxII knocked down HAECs = assay: Intracellular hydrogen peroxide (DCF fluorescence), PrxII knocked down HAECs; type: cell-based, human
Experimental: First, the ability of GT to eliminate intracellular hydrogen peroxide in PrxII knocked down HASMCs and HAECs was tested. The cellular hydrogen peroxide production was monitored using an oxidant-sensitive fluorescence dye (2′,7′-dihydro-chlorofluorescein diacetate, H2DCF-DA).

PDGFRβ and PLCγ1 = assay: PDGF-induced signaling, immunoblot, PrxII knocked down HASMCs; type: cell-based, human
Experimental: The cells were rinsed with an ice-cold phosphate buffered saline (PBS) solution and then lysed in an extraction buffer solution containing 20 mM Hepes (pH 7.0), 1% Triton X-100, 150 mM NaCl, 10% glycerol, 1 mM EDTA, 2 mM EGTA, 1 mM DTT, 5 mM Na3VO4, 5 mM NaF, 1 mM AEBSF, aprotinin (5 μg/ml), and leupeptin (5 μg/ml). After being centrifuged at 12,000×g, the purified cell extracts were used for immunoblotting. In order to adjust the loading, the membranes were stripped by shaking them for 30 minutes at 60° C. in 67 mM Tris (pH 6.7), 2% SDS, and 100 mM 2-mercaptoethanol solution, and reprobed with an appropriate pan antibody.
In addition, the regulatory effects of GT on the PDGFRβ- and VEGFR2-mediated signaling pathway were examined. The GT treatment in HASMCs was quite different from PDGF-induced tyrosine phosphorylation that was enhanced by the PrxII knockdown (FIG. 12a). […] Conversely, the GT treatment in HAECs restored the VEGF-dependent activation of VEGFR2 and ERK that had been diminished by the PrxII knockdown (FIG. 12b). The effects of GT in vascular cell fuction were further validated.

NADPH oxidase (NOX) = assay: NADPH oxidase activity assay (whole cell superoxide production); type: cell-based, human; conditions: HASMCs with PDGF-B and HAECs with VEGF-A; until concentrations increased up to 500 nM
Experimental: Whole cell superoxide production was measured using an enhanced luminescence system (Diogenes, National Diagnostics). For the assay, the serum-starved cells were pre-incubated with a 100 μl Diogene reagent at 37° C. for 5 minutes. After being stimulated by the indicated growth factor, chemiluminescence was detected every second for 10 minutes with a TD-20/20 Luminometer (Turner Biosystems).
When HASMCs and HAECs were stimulated with PDGF-B and VEGF-A, respectively, the NOX activity increased approximately twofold. […] Thus, it was seen that these ETP compounds function as hydrogen peroxide reductase capable of replacing PrxII in both vascular cells, but the mechanism was not the inhibition of hydrogen peroxide producer NOX.

[1] = tested on: balloon injured carotid arteries; assay: Vascular permeability test (Evans blue inflow); conditions: rat, in vivo
Experimental: Mice were injected intravenously with 100 μl of 5% Evans blue for 30 minutes and then perfused with PBS for 5 minutes. The common carotid arteries were removed from both uninjured collateral and injured ipsilateral ones. The result was dissected, opened longitudinally, and examined on a phase contrast microscope with a magnification of 20×. For quantification, the Evans blue inflowed into the blood vessel was extracted by being placed in formamide at 55° C. overnight and centrifuged for 10 minutes at 12,000 rpm. The supernatants were collected and the absorbance was measured at 620 nm. The background value of the Evans blue dye was measured at 740 nm and substracted from the values in carotid arteries. For VEGFR2 inhibition, SU5416 (20 mg/kg) was injected intraperitoneally for 3 times (Days −1, 1, and 3) before and after the balloon injury. Control injection was made of 200 μl PBS including a vehicle (5% DMSO).
The permeability of the repaired endothelium was examined by Evans blue inflow.

B16F10 melanoma cells = assay: Metastasis of B16F10 melanoma cells to lung in mouse; type: in vivo
Experimental: After B16F10 cells were temporarily transfected with PrxII siRNA for 24 hours and trypsinized, the cells were resuspended in a Hank's balanced salt solution (HBSS). The cell suspension was injected by intravenous injection to a C57/BL6 mouse (1×10^6 cells per mouse). The mouse was sacrified after 10 days, and the lung was removed after transcardia perfusion-fixation with a heparinized saline solution including 3.7% formaldehyde. The removed lung was paraffin embedded and sectioned using a rotary microtome (Leica RM2255). Two serial tissue sections (4 μm in thickness) were stained with haematoxylin and eosin. The melanoma tumor nodules metastasized from the surface of the lung and the HE-stained tissue sections were counted. In order to verify the effects of gliotoxin (GT), chaetocin and chetomin, the melanoma cells were intravenously injected to the C57/BL6 mouse, and then gliotoxin (300 mg/kg) was intraperitoneally injected for 5 times over 10 days.

Compound: CN1C(=O)[C@]23CC4=CC=C[C@H](O)[C@H]4N2C(=O)[C@@]1(CO)SS3 [gliotoxin]
- basal level of intracellular hydrogen peroxide enhanced by PrxII knockdown (PrxII knocked down HAECs): completely eliminated
- level of PDGFRβ and PLCγ1 activation (PDGFRβ and PLCγ1): diminished to the level of stimulated control group cells
- NOX activity (NADPH oxidase (NOX)): did not inhibit
- Evans blue inflow compared to DMSO-treated injured carotid arteries [1]: approximately two-third reduction
- metastasis of B16F10 melanoma cells to lung (tumor nodules) (B16F10 melanoma cells; i.p. 5 times over 10 days after i.v. injection of B16F10 cells): significantly reduced
- metastasis of PrxII-knocked down B16F10 to lung (B16F10 melanoma cells; mPrx2-1 siRNA-transfected cells, i.p. 5 times over 10 days): more significantly reduced
